Laboratory results reported in PubChem BioAssay (NCI).
Several values for one entry are separate records, joined by “and”; a condition that tells them apart may be missing. Equal values may be shown once.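 Following 48 hours of exposure in 96-well plates, responses at five concentrations were used to interpolate endpoints linearly. At the GI50, growth is halved. TGI denotes the concentration required for complete inhibition of growth.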

System: MDA-MB-468 breast
Assay: NCI anticancer screen, dose series, 48 h

COC12C=C/C(=C(/C(=O)OCc3ccncn3)C(=O)CCCCCCCCC3(OC)C=C/C(=C(/C(=O)OCc4ccncn4)C(=O)CCCCCCCC1)O3)O2
GI50: 239 nM
TGI: 682 nM

COc1ccccc1/C=C1\COc2ccc(O)c(O)c2C1=O
GI50: 1240 nM
TGI: 3290 nM

C=C1C(=O)O[C@@H]2[C@@H]3O[C@@](C)(CC/C=C(\C)CCC[C@@H]2C)[C@H](O)C[C@@H]13
GI50: 1150 nM
TGI: 2800 nM

C=C1C(=O)OC(CCCCCCCC)C1C(=O)O (centres undefined)
GI50: 5610 nM
TGI: 16700 nM

CC/C=C/[C@@H]1C=C[C@@H]2CCC[C@H]2[C@@H]1CC[C@H](O)[C@H](C)N
GI50: 1240 nM
TGI: 2690 nM

O=C(Nc1ccc(Cl)c(Cl)c1)Nc1ccc(Cl)c([N+](=O)[O-])c1
GI50: 884 nM
TGI: 3520 nM

Cc1cc(Cl)n2c(nc3ccccc32)c1C#N
GI50: 394 nM
TGI: 1840 nM

COc1c(O)c2ccccc2c2cc(O)ccc12
GI50: 3700 nM
TGI: 15000 nM

COc1cc(-c2cc(-c3ccc(N(C)C)cc3)nc(N3CCC(O)CC3)c2C#N)cc(OC)c1OC
GI50: 1110 nM
TGI: 4080 nM

CCOC(=O)c1cc2c(n1Cc1cccc(OC)c1)-c1oncc1CC2
GI50: 346 nM
TGI: 2490 nM

CC/C(=C(\c1ccccc1)c1ccc(OCCN(C)C)cc1)c1ccccc1
GI50: 1340 nM and 1950 nM and 3920 nM
TGI: 6480 nM and 5440 nM and 7970 nM

COc1cc([C@@H]2c3cc4c(cc3[C@H](OC3OC5COC(c6ccccc6)OC5C(O)C3O)[C@H]3COC(=O)[C@H]23)OCO4)cc(OC)c1OC (some centres undefined)
GI50: 472 nM
TGI: 19600 nM

Cc1ccc(CCC(=O)Nc2ncc(Cc3cc(Cl)ccc3Cl)s2)o1
GI50: 266 nM
TGI: 20700 nM

CCOc1ccc([C@H]2C(C(=O)c3ccc(Cl)cc3)C3(N[C@@H]2c2ccccc2)C(=O)Nc2ccc(Br)cc23)cc1 (some centres undefined)
GI50: 16600 nM
TGI: 41800 nM

COc1ccc(C(=O)CC2(O)C(=O)Nc3c(Cl)ccc(Cl)c32)cc1 (centres undefined)
GI50: 536 nM

COc1cc[c]([Hg][Cl])cc1
GI50: 1660 nM
TGI: 3350 nM

CCN(CC)CCn1c(=N)n(CC(O)c2ccc(Cl)c(Cl)c2)c2ccccc21 (centres undefined)
GI50: 2490 nM
TGI: 8090 nM

N#Cc1c(N)nn(C(=O)c2ccc(NC(=O)c3ccccn3)cc2)c1-c1ccc(Cl)cc1
GI50: 2430 nM
TGI: 6640 nM

CCc1cc(C(N)=O)ccc1-n1nc(C(C)C)c2c(-n3cnc(-c4cnn(C)c4)c3)ccnc21
GI50: 821 nM
TGI: > 22200 nM

COc1ccc(CN2CCc3c(Cl)nc(N)nc3C2=O)c(OC)c1
GI50: 5850 nM
TGI: 33100 nM

O=C(Nc1ccccc1)c1cc2c(cc1Cl)Sc1nccn1S2(=O)=O
GI50: 5470 nM
TGI: 26300 nM

O=C1CCC/C=C\C[C@H]2C=C(Cl)C(=O)/C2=C/C[C@H](CCCCC(F)(F)F)OC(=O)CCC/C=C\C[C@H]2C=C(Cl)C(=O)/C2=C/C[C@H](CCCCC(F)(F)F)O1
GI50: 239 nM
TGI: 721 nM

CCOC(=O)c1c(NC(=O)c2ccc(C(F)(F)F)cc2)sc2c3c(ccc12)OCN(C)C3
GI50: 1560 nM
TGI: 3180 nM

CC[C@]1(O)C[C@@H]2CN(Cc3c([nH]c4ccccc34)[C@@](C(=O)OC)(c3cc4c(cc3OC)N(C)[C@H]3[C@@](O)(C(=O)OC)[C@H](OC(C)=O)[C@]5(CC)[C@@H]6C[C@@H]6CN6CC[C@]43[C@@H]65)C2)C1
GI50: 17 nM

CC(C)Oc1cc(OCC(=O)O)cc(C(=O)N(CCC(N)=O)C(=O)Nc2ccc(C(=O)O)cc2OC(C)C)c1
GI50: > 100000 nM
TGI: > 100000 nM

FC(F)(F)c1ccc2nc(-c3nc(-c4ccccc4)n4ccccc34)[nH]c2c1
GI50: 2020 nM
TGI: 7310 nM

CC(C)(O)Cn1c(=O)c(Oc2ccc(F)cc2F)cc2cnc(NC3CCOCC3)nc21
GI50: > 25000 nM
TGI: > 25000 nM

COc1ccc(/C=C2/SC(=Nc3c(C)nn(-c4ccccc4)c3N)NC2=O)cc1
GI50: 3240 nM
TGI: 12400 nM

C(=N\Nc1ncc(-c2cc3cc4c(cc3o2)OCO4)s1)/c1c[nH]c2ccccc12
GI50: 1010 nM
TGI: 6050 nM

N#C/C(=C\c1ccc(-c2ccc(F)cc2)o1)C(=O)Nc1ncc(Cc2ccc(Cl)cc2Cl)s1
GI50: 2170 nM
TGI: 5010 nM

CCN(CC)CCCCCCCCNc1c2ccc(Cl)cc2nc2ccc(OC)cc12
GI50: 1440 nM
TGI: 2770 nM

COc1ccc([C@H]2c3cc(OC)c(OC)cc3C=C(C=O)C2CO)cc1OC (some centres undefined)
GI50: 2550 nM
TGI: 25100 nM

CCOC(=O)c1cnc2ccc(Cl)cc2c1NCCCN(C)C
GI50: 16200 nM
TGI: 45400 nM

O=C(CCCCCCc1nc2ccc(Br)cc2[nH]1)NO
GI50: 248 nM
TGI: 6370 nM

CCN1CCC(C(=O)Nc2n[nH]c3nnc(-c4cccc(F)c4F)cc23)CC1
GI50: 2320 nM
TGI: 6780 nM

C#Cc1cccc(NC(=O)Nc2ccccc2NC(=O)CCl)c1
GI50: 16000 nM
TGI: 39300 nM

Cc1ncc(C(=O)Nc2ccc(CN3CCN(C)CC3)c(C(F)(F)F)c2)cc1C#Cc1c(N)ncc2ccc(C#N)cc12
GI50: 7860 nM
TGI: 28100 nM

COc1ccc(C(=O)c2cc3c(N)c(C(=O)Nc4cccc(Cl)c4)sc3nc2C)cc1
GI50: 859 nM
TGI: 2830 nM

CCCCc1ccc2nc(NC(=O)OC)[nH]c2c1
GI50: 107 nM
TGI: 1600 nM

Cc1cc2c(-c3nc4ccccc4[nH]3)c(O)c(O)cc2c(O)c1-c1c(C)cc2c(-c3nc4ccccc4[nH]3)c(O)c(O)cc2c1O
GI50: 20 nM
TGI: 601 nM

O=c1ccc2nc(-c3ccccc3)nn(-c3ccccc3)c-2c1
GI50: 1020 nM
TGI: 2400 nM

CCc1nc(N)nc(N)c1-c1ccc(Cl)cc1
GI50: 11400 nM
TGI: > 100000 nM

CCN1CCN(C(=O)[C@]23CC[C@@H](C)[C@H](C)[C@@H]2C2=CC[C@@H]4[C@@]5(C)C/C(=C/c6cccnc6)C(=O)C(C)(C)[C@@H]5CC[C@@]4(C)[C@]2(C)CC3)CC1
GI50: 1650 nM
TGI: 3430 nM
